Experimental data: PubChem BioAssay AID330 (DTP/NCI, 2004)
“And” between values parts separate entries of the source, which are not always exact repeats. Identical values can stand only once. Inconclusive results and toxic doses are left out. How the source made its calls: active means survival T/C of 150% or more; inactive means T/C below 125% in these data.

Test system: P388 leukemia ip, CD2F1 mice, survival T/C
Assay: NCI In Vivo Anticancer Drug Screen. Data for tumor model P388 Leukemia (intraperitoneal) in CD2F1 (CDF1) mice
Settings: endpoint: median survival time, higher = longer survival
Summary of the method: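 Mice carrying the transplanted tumor received test compound or vehicle. Survival was recorded in each group, and the value is the treated-group measurement divided by that of the vehicle-treated control group.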

[1] = dose: 12.5 mg/kg/injection, schedule: Q01DX009 (ip), vehicle: saline
[2] = dose: 25.0 mg/kg/injection, schedule: Q01DX009 (ip), vehicle: saline
[3] = dose: 50.0 mg/kg/injection, schedule: Q01DX009 (ip), vehicle: saline
[4] = dose: 100.0 mg/kg/injection, schedule: Q01DX009 (ip), vehicle: saline
[5] = dose: 60.0 mg/kg/injection, schedule: Q01DX005 (ip), vehicle: saline with Tween-80
[6] = dose: 120.0 mg/kg/injection, schedule: Q01DX005 (ip), vehicle: saline with Tween-80
[7] = dose: 50.0 mg/kg/injection, schedule: Q01DX009 (ip), vehicle: Klucel (hydroxypropylcellulose) (HPC)
[8] = dose: 100.0 mg/kg/injection, schedule: Q01DX009 (ip), vehicle: Klucel (hydroxypropylcellulose) (HPC)
[9] = dose: 200.0 mg/kg/injection, schedule: Q01DX009 (ip), vehicle: Klucel (hydroxypropylcellulose) (HPC)

Measured: T/C

CCCCCC(CN(C)C)C(=O)/C=C/c1ccc(O)cc1 (stereo not given)
inactive: [1] 88 % of control | [2] 89 % of control | [3] 101 % of control and 93 % of control | [4] 113 % of control

COC(=O)CCCC(NC(=O)c1ccc([N+](=O)[O-])cc1)C(=O)OC (stereo not given)
inactive: dose: 50.0 mg/kg/injection, schedule: Q01DX009 (ip), vehicle: saline with Tween-80 98 % of control | dose: 100.0 mg/kg/injection, schedule: Q01DX009 (ip), vehicle: saline with Tween-80 96 % of control | dose: 200.0 mg/kg/injection, schedule: Q01DX009 (ip), vehicle: saline with Tween-80 96 % of control

COc1ccc[nH]c1=O
inactive: [3] 102 % of control and 103 % of control | [4] 106 % of control and 109 % of control | dose: 200.0 mg/kg/injection, schedule: Q01DX009 (ip), vehicle: saline 100 % of control and 105 % of control | dose: 400.0 mg/kg/injection, schedule: Q01DX009 (ip), vehicle: saline 105 % of control and 112 % of control | dose: 600.0 mg/kg/injection, schedule: Q01DX009 (ip), vehicle: saline 106 % of control and 114 % of control

COC(=O)c1nnn(-c2ccc(C)c(C)c2)c1C(=O)c1ccccc1
inactive: [5] 99 % of control | [6] 109 % of control

CC(C)(C)c1ccc(C(C)(C)C)c(N2C(=O)c3ccc4c5ccc6c7c(ccc(c8ccc(c3c48)C2=O)c75)C(=O)N(c2cc(C(C)(C)C)ccc2C(C)(C)C)C6=O)c1
inactive: [5] 95 % of control | [6] 90 % of control | dose: 240.0 mg/kg/injection, schedule: Q01DX005 (ip), vehicle: saline with Tween-80 99 % of control

Cc1c(-c2ccccc2)nc(N)n1C
inactive: dose: 5.0 mg/kg/injection, schedule: Q04DX002 (ip), vehicle: saline 100 % of control | dose: 10.0 mg/kg/injection, schedule: Q04DX002 (ip), vehicle: saline 99 % of control | dose: 20.0 mg/kg/injection, schedule: Q04DX002 (ip), vehicle: saline 96 % of control

CCN1CCCC(OC(=O)c2cccc3[nH]ccc23)C1 (stereo not given)
inactive: dose: 3.13 mg/kg/injection, schedule: Q01DX009 (ip), vehicle: saline with Tween-80 118 % of control | dose: 6.25 mg/kg/injection, schedule: Q01DX009 (ip), vehicle: saline with Tween-80 103 % of control | dose: 12.5 mg/kg/injection, schedule: Q01DX009 (ip), vehicle: saline with Tween-80 98 % of control | dose: 25.0 mg/kg/injection, schedule: Q01DX009 (ip), vehicle: saline with Tween-80 99 % of control

CCCC(=O)N1CCCCC1CC (stereo not given)
inactive: dose: 100.0 mg/kg/injection, schedule: Q01DX001 (ip), vehicle: saline 100 % of control | dose: 200.0 mg/kg/injection, schedule: Q01DX001 (ip), vehicle: saline 102 % of control

CC(C)C12OC1C1OC13C1(C)CCC(O)CC1CC1OC13C2O (stereo not given)
inactive: dose: 0.03 mg/kg/injection, schedule: Q01DX009 (ip), vehicle: saline + alcohol 103 % of control and 101 % of control and 111 % of control | dose: 0.06 mg/kg/injection, schedule: Q01DX009 (ip), vehicle: saline + alcohol 102 % of control and 111 % of control | dose: 0.12 mg/kg/injection, schedule: Q01DX009 (ip), vehicle: saline + alcohol 115 % of control and 109 % of control and 107 % of control | dose: 0.25 mg/kg/injection, schedule: Q01DX009 (ip), vehicle: saline + alcohol 111 % of control and 106 % of control and 117 % of control | dose: 0.5 mg/kg/injection, schedule: Q01DX009 (ip), vehicle: saline + alcohol 115 % of control and 109 % of control | dose: 1.0 mg/kg/injection, schedule: Q01DX009 (ip), vehicle: saline + alcohol 109 % of control and 115 % of control | dose: 2.0 mg/kg/injection, schedule: Q01DX009 (ip), vehicle: saline + alcohol 111 % of control and 103 % of control and 106 % of control | dose: 4.0 mg/kg/injection, schedule: Q01DX009 (ip), vehicle: saline + alcohol 103 % of control and 100 % of control | dose: 8.0 mg/kg/injection, schedule: Q01DX009 (ip), vehicle: saline + alcohol 103 % of control and 100 % of control | dose: 16.0 mg/kg/injection, schedule: Q01DX009 (ip), vehicle: saline + alcohol 102 % of control and 103 % of control

COc1cc2c(c(OC)c1OC)-c1ccc(=O)c(OC)cc1[C@@H](N(C)C)CC2
inactive: dose: 2.5 mg/kg/injection, schedule: Q01DX009 (ip), vehicle: Klucel (hydroxypropylcellulose) (HPC) 100 % of control | dose: 5.0 mg/kg/injection, schedule: Q01DX009 (ip), vehicle: Klucel (hydroxypropylcellulose) (HPC) 106 % of control | dose: 10.0 mg/kg/injection, schedule: Q01DX009 (ip), vehicle: Klucel (hydroxypropylcellulose) (HPC) 107 % of control | dose: 20.0 mg/kg/injection, schedule: Q01DX009 (ip), vehicle: Klucel (hydroxypropylcellulose) (HPC) 110 % of control | dose: 40.0 mg/kg/injection, schedule: Q01DX009 (ip), vehicle: Klucel (hydroxypropylcellulose) (HPC) 110 % of control

CCCC(O)CCC(O)=C1C(=O)CCC1=O (stereo not given)
inactive: dose: 50.0 mg/kg/injection, schedule: Q01DX005 (ip), vehicle: saline 107 % of control | dose: 100.0 mg/kg/injection, schedule: Q01DX005 (ip), vehicle: saline 107 % of control | dose: 200.0 mg/kg/injection, schedule: Q01DX005 (ip), vehicle: saline 107 % of control

Fc1ccc(-c2cc(-c3cc(-c4ccc(F)cc4)n[nH]3)[nH]n2)cc1
inactive: dose: 60.0 mg/kg/injection, schedule: Q01DX005 (ip), vehicle: Klucel + Tween-80 91 % of control | dose: 120.0 mg/kg/injection, schedule: Q01DX005 (ip), vehicle: Klucel + Tween-80 88 % of control | dose: 240.0 mg/kg/injection, schedule: Q01DX005 (ip), vehicle: Klucel + Tween-80 88 % of control

Oc1ccc2c(c1)Cc1cc3ccccc3nc1-2
inactive: dose: 25.0 mg/kg/injection, schedule: Q01DX009 (ip), vehicle: Klucel (hydroxypropylcellulose) (HPC) 101 % of control | [7] 98 % of control | [8] 94 % of control | [9] 103 % of control

COc1ccc(C(=O)N2CC(O)=CC2=O)cc1
inactive: [7] 105 % of control | [8] 107 % of control | [9] 92 % of control

Nc1nnn(-c2ccccc2)n1
inactive: dose: 100.0 mg/kg/injection, schedule: Q01DX001 (ip), vehicle: Klucel (hydroxypropylcellulose) (HPC) 102 % of control | dose: 200.0 mg/kg/injection, schedule: Q01DX001 (ip), vehicle: Klucel (hydroxypropylcellulose) (HPC) 101 % of control | dose: 400.0 mg/kg/injection, schedule: Q01DX001 (ip), vehicle: Klucel (hydroxypropylcellulose) (HPC) 102 % of control

Cc1ccc(S(=O)(=O)N=Nc2c(O)[nH]c3c(Cl)cc(Cl)cc23)cc1
inactive: dose: 50.0 mg/kg/injection, schedule: Q01DX005 (ip), vehicle: saline with Tween-80 103 % of control | dose: 100.0 mg/kg/injection, schedule: Q01DX005 (ip), vehicle: saline with Tween-80 100 % of control | dose: 200.0 mg/kg/injection, schedule: Q01DX005 (ip), vehicle: saline with Tween-80 95 % of control

CNc1nc(-c2ccc(C(C)(C)C)cc2)c(-c2ccc(C(C)(C)C)cc2)[nH]1
inactive: dose: 25.0 mg/kg/injection, schedule: Q04DX002 (ip), vehicle: saline with Tween-80 117 % of control and 96 % of control | dose: 50.0 mg/kg/injection, schedule: Q04DX002 (ip), vehicle: saline with Tween-80 107 % of control and 121 % of control

CC1(C)N=C(N)N=C(N)N1c1cccc(CNc2ccc(S(N)(=O)=O)cc2)c1
inactive: dose: 7.5 mg/kg/injection, schedule: Q01DX005 (ip), vehicle: Klucel (hydroxypropylcellulose) (HPC) 102 % of control | dose: 15.0 mg/kg/injection, schedule: Q01DX005 (ip), vehicle: Klucel (hydroxypropylcellulose) (HPC) 100 % of control | dose: 30.0 mg/kg/injection, schedule: Q01DX005 (ip), vehicle: Klucel (hydroxypropylcellulose) (HPC) 102 % of control

Clc1ccc(-c2nnc3ncccn23)cc1
inactive: dose: 100.0 mg/kg/injection, schedule: Q01DX001 (ip), vehicle: saline with Tween-80 96 % of control | dose: 200.0 mg/kg/injection, schedule: Q01DX001 (ip), vehicle: saline with Tween-80 105 % of control

N=C(N)c1ccc(N=C(N)Nc2ccc(C(=N)N)cc2)cc1
inactive: dose: 6.25 mg/kg/injection, schedule: Q01DX009 (ip), vehicle: saline 95 % of control | [1] 95 % of control | [2] 95 % of control
